The record followed here is patent US9737542B2, “Pyrrolotriazine kinase inhibitors” (BRISTOL-MYERS SQUIBB COMPANY, priority 2013, dated 2017).

What is called IC50 is the point on the concentration scale where inhibition reaches its midpoint. A low value points to greater potency.

The target of this experiment is GST-Xa-hAAK1 (Homo sapiens (Human), UniProt Q2M2I8). Put plainly: AAK1 Kinase Assay. The class given is biochemical. The note with it: ATP 22 μM, 3 hours at room temperature.
GST-Xa-hAAK1, sequence (Q2M2I8 whole entry): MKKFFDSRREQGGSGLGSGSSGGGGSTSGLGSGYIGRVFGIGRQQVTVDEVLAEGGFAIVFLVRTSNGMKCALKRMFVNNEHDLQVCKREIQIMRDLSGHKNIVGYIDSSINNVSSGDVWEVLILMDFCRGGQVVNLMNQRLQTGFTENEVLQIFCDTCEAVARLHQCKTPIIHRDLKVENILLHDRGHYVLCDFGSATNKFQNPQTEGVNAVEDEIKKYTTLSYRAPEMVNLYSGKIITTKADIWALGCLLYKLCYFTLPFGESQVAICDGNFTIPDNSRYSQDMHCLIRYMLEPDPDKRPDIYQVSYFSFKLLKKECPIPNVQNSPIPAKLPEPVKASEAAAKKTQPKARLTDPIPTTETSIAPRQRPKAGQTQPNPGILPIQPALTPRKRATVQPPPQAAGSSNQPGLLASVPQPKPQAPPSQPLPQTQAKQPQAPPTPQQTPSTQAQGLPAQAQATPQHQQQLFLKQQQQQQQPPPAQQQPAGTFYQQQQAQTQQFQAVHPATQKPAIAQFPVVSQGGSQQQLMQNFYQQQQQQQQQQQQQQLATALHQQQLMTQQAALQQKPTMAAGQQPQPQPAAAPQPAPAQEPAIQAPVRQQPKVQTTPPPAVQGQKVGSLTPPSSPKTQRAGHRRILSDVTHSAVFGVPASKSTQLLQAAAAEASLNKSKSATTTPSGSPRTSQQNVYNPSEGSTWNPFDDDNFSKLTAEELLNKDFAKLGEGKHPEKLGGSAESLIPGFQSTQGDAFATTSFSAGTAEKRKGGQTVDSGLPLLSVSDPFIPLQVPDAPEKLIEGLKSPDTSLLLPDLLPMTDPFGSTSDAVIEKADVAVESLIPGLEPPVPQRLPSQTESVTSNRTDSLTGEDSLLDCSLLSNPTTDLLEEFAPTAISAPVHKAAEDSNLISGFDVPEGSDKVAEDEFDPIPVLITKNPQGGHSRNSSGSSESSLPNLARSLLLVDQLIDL

In turn, `NC1CCN(Cc2cc(Br)n3ncnc(Nc4cccc(-c5cnco5)c4)c23)CC1` [Example 68, 5-((4-aminopiperidin-1-yl)methyl)-7-bromo-N-(3-(oxazol-5-yl)phenyl)pyrrolo[2,1-f][1,2,4]triazin-4-amine] registered an IC50 (listed as IC50 ranges) of 1000 to 5000 nM.

In turn, `CC(C)c1nnc(-c2cccc(Nc3ncnn4ccc(CNCCCN)c34)c2)s1` [Example 69, N1-((4-((3-(5-isopropyl-1,3,4-thiadiazol-2-yl)phenyl)amino)pyrrolo[2,1-f][1,2,4]triazin-5-yl)methyl)propane-1,3-diamine] registered a 50% inhibitory concentration (IC50) (listed as IC50 ranges) of 100 to 1000 nM.

Under “listed as IC50 ranges”, `CC(CN)CNCc1ccn2ncnc(Nc3cccc(-c4nnc(C(C)C)s4)c3)c12` (stereo not drawn) [Example 70, N1-((4-((3-(5-isopropyl-1,3,4-thiadiazol-2-yl)phenyl)amino)pyrrolo[2,1-f][1,2,4]triazin-5-yl)methyl)-2-methylpropane-1,3-diamine] yielded an IC50 of 100 to 1000 nM.

As for `CC(C)c1nnc(-c2cccc(Nc3ncnn4ccc(CN5CCCC(CN)C5)c34)c2)s1` (stereo not drawn) [Example 71, 5-((3-(aminomethyl)piperidin-1-yl)methyl)-N-(3-(5-isopropyl-1,3,4-thiadiazol-2-yl)phenyl)pyrrolo[2,1-f][1,2,4]triazin-4-amine], the IC50 (listed as IC50 ranges) lay within 1000 to 5000 nM.

Compound `CC(C)n1nnc(-c2cc(Nc3ncnn4ccc(CN5CCC(N)CC5)c34)cc(C(F)F)c2)n1` [Example 72, 5-((4-aminopiperidin-1-yl)methyl)-N-(3-(difluoromethyl)-5-(2-isopropyl-2H-tetrazol-5-yl)phenyl)pyrrolo[2,1-f][1,2,4]triazin-4-amine] registered an IC50 (listed as IC50 ranges) of 10 to 100 nM.

Compound `NC1CCN(Cc2ccn3ncnc(Nc4cccc(-c5noc(C6CCCC6)n5)c4)c23)CC1` [Example 73, 5-((4-aminopiperidin-1-yl)methyl)-N-(3-(5-cyclopentyl-1,2,4-oxadiazol-3-yl)phenyl)pyrrolo[2,1-f][1,2,4]triazin-4-amine] came in with an IC50 of 16 nM.

`CC(C)n1nnc(-c2cc(Nc3ncnn4ccc(CN5CCC(N)CC5)c34)c3[nH]ccc3c2)n1` [Example 74, 5-((4-aminopiperidin-1-yl)methyl)-N-(5-(2-isopropyl-2H-tetrazol-5-yl)-1H-indol-7-yl)pyrrolo[2,1-f][1,2,4]triazin-4-amine] showed an IC50 (listed as IC50 ranges) of 10 to 100 nM.

For the setting “listed as IC50 ranges”, `CC(C)n1nnc(-c2cc(Nc3ncnn4ccc(CN5CCC(N)CC5)c34)cc3[nH]cnc23)n1` [Example 75, 5-((4-aminopiperidin-1-yl)methyl)-N-(4-(2-isopropyl-2H-tetrazol-5-yl)-1H-benzo[d]imidazol-6-yl)pyrrolo[2,1-f][1,2,4]triazin-4-amine] had an IC50 of 100 to 1000 nM.

As for `CC(C)n1nnc(-c2cccc(Nc3ncnn4cccc34)c2)n1` [Example 76, N-(3-(2-isopropyl-2H-tetrazol-5-yl)phenyl)pyrrolo[2,1-f][1,2,4]triazin-4-amine], the IC50 stood at 220 nM.

`CC(C)c1nc(-c2cccc(Nc3ncnn4cccc34)c2)no1` [Example 77, N-(3-(5-isopropyl-1,2,4-oxadiazol-3-yl)phenyl)pyrrolo[2,1-f][1,2,4]triazin-4-amine]: half-maximal inhibition (IC50) was put at 291 nM.

`CC(C)(CCl)c1nc(-c2cccc(Nc3ncnn4cccc34)c2)no1` [Example 78, N-(3-(5-(1-chloro-2-methylpropan-2-yl)-1,2,4-oxadiazol-3-yl)phenyl)pyrrolo[2,1-f][1,2,4]triazin-4-amine] had an IC50 of 112 nM.

Take `CC(C)c1nnc(-c2cccc(Nc3ncnn4cccc34)c2)s1` [Example 79, N-(3-(5-isopropyl-1,3,4-thiadiazol-2-yl)phenyl)pyrrolo[2,1-f][1,2,4]triazin-4-amine]: the IC50 is 269 nM.

Compound `CC(C)c1nnc(-c2cccc(Nc3ncnn4cccc34)c2)o1` [Example 80, N-(3-(5-isopropyl-1,3,4-oxadiazol-2-yl)phenyl)pyrrolo[2,1-f][1,2,4]triazin-4-amine] showed an IC50 of 384 nM.

Take `CC(C)(CO)c1nc(-c2cccc(Nc3ncnn4cccc34)c2)no1` [Example 81, 2-methyl-2-(3-(3-(pyrrolo[2,1-f][1,2,4]triazin-4-ylamino)phenyl)-1,2,4-oxadiazol-5-yl)propan-1-ol]: it took 413 nM to reach half-maximal inhibition (IC50).

With `CC(C)(CN)c1nc(-c2cccc(Nc3ncnn4cccc34)c2)no1` [Example 82, N-(3-(5-(1-amino-2-methylpropan-2-yl)-1,2,4-oxadiazol-3-yl)phenyl)pyrrolo[2,1-f][1,2,4]triazin-4-amine], the midpoint of inhibition, the IC50, lay at 67 nM.

On to `CC(C)n1nnc(-c2cc(CO)cc(Nc3ncnn4cccc34)c2)n1` [Example 83, (3-(2-isopropyl-2H-tetrazol-5-yl)-5-(pyrrolo[2,1-f][1,2,4]triazin-4-ylamino)phenyl)methanol], for which half-maximal inhibition (IC50) was put at 406 nM.

Turning to `CC(C)n1nnc(-c2cc(O)cc(Nc3ncnn4cccc34)c2)n1` [Example 84, 3-(2-isopropyl-2H-tetrazol-5-yl)-5-(pyrrolo[2,1-f][1,2,4]triazin-4-ylamino)phenol], inhibition was half-maximal at 75 nM (IC50). This IC50 lies about 5.4-fold lower than the previous one.

`CC(C)c1nc(-c2cc(O)cc(Nc3ncnn4cccc34)c2)no1` [Example 85, 3-(5-isopropyl-1,2,4-oxadiazol-3-yl)-5-(pyrrolo[2,1-f][1,2,4]triazin-4-ylamino)phenol] yielded an IC50 of 82 nM. This IC50 and that of the compound before are within 1.5-fold of each other.

Take `Cc1ccn2ncnc(Nc3cccc(-c4noc(C(C)C)n4)c3)c12` [Example 86]: inhibition was half-maximal at 123 nM (IC50). This IC50 is about 1.5-fold higher than that of the compound before.

For the compound `Cc1ccn2ncnc(Nc3cccc(-c4nnc(C(C)C)s4)c3)c12` [Example 87, N-(3-(5-isopropyl-1,3,4-thiadiazol-2-yl)phenyl)-5-methylpyrrolo[2,1-f][1,2,4]triazin-4-amine], it took 325 nM to reach half-maximal inhibition (IC50).

For the compound `Cc1ccn2ncnc(Nc3cccc(-c4nnn(C(C)C)n4)c3)c12` [Example 88, N-(3-(2-isopropyl-2H-tetrazol-5-yl)phenyl)-5-methylpyrrolo[2,1-f][1,2,4]triazin-4-amine], the IC50 was 22 nM.

Consider `Cc1ccn2ncnc(Nc3cccc(-c4noc(C(C)(C)CO)n4)c3)c12` [Example 89, 2-methyl-2-(3-(3-(5-methylpyrrolo[1,2-f][1,2,4]triazin-4-ylamino)phenyl)-1,2,4-oxadiazol-5-yl)propan-1-ol], for which inhibition was half-maximal at 207 nM (IC50).

Compound `Cc1ccn2ncnc(Nc3cccc(-c4noc(C(C)(C)CCl)n4)c3)c12` [Example 90, N-(3-(5-(1-chloro-2-methylpropan-2-yl)-1,2,4-oxadiazol-3-yl)phenyl)-5-methylpyrrolo[2,1-f][1,2,4]triazin-4-amine] yielded an IC50 of 52 nM. Compared with the last compound, the IC50 is about 4-fold lower.

Consider `Cc1ccn2ncnc(Nc3cccc(-c4noc(C(C)(C)CN)n4)c3)c12` [Example 91, N-(3-(5-(1-amino-2-methylpropan-2-yl)-1,2,4-oxadiazol-3-yl)phenyl)-5-methylpyrrolo[2,1-f][1,2,4]triazin-4-amine], for which 63 nM corresponded to half-maximal inhibition (IC50).

`COc1cc(Nc2ncnn3ccc(C)c23)cc(-c2noc(C(C)C)n2)c1` [Example 92, N-(3-(5-isopropyl-1,2,4-oxadiazol-3-yl)-5-methoxyphenyl)-5-methylpyrrolo[2,1-f][1,2,4]triazin-4-amine] had an IC50 of 1170 nM.

`Cc1ccn2ncnc(Nc3cc(O)cc(-c4noc(C(C)C)n4)c3)c12` [Example 93, 3-(5-isopropyl-1,2,4-oxadiazol-3-yl)-5-((5-methylpyrrolo[2,1-f][1,2,4]triazin-4-yl)amino)phenol] returned an IC50 of 73 nM.

Consider `CCOC(=O)c1ccn2ncnc(Nc3cccc(-c4nnc(C(C)C)s4)c3)c12` [Example 94, ethyl 4-((3-(5-isopropyl-1,3,4-thiadiazol-2-yl)phenyl)amino)pyrrolo[2,1-f][1,2,4]triazine-5-carboxylate], for which it took 474 nM to reach half-maximal inhibition (IC50).

`CCOC(=O)c1ccn2ncnc(Nc3cc(O)cc(-c4nnn(C(C)C)n4)c3)c12` [Example 95, ethyl 4-((3-hydroxy-5-(2-isopropyl-2H-tetrazol-5-yl)phenyl)amino)pyrrolo[2,1-f][1,2,4]triazine-5-carboxylate] showed an IC50 of 2530 nM.

In turn, `CCOC(=O)c1ccn2ncnc(Nc3cccc(-c4nnn(C(C)C)n4)c3)c12` [Example 96, ethyl 4-((3-(2-isopropyl-2H-tetrazol-5-yl)phenyl)amino)pyrrolo[2,1-f][1,2,4]triazine-5-carboxylate] had an IC50 of 624 nM.

On to `CCOC(=O)c1ccn2ncnc(Nc3cccc(-c4noc(C(C)C)n4)c3)c12` [Example 97, ethyl 4-((3-(5-isopropyl-1,2,4-oxadiazol-3-yl)phenyl)amino)pyrrolo[2,1-f][1,2,4]triazine-5-carboxylate], for which the IC50 was found to be 883 nM.

For the compound `CC(C)n1nnc(-c2cccc(Nc3ncnn4ccc(CO)c34)c2)n1` [Example 98, (4-((3-(2-isopropyl-2H-tetrazol-5-yl)phenyl)amino)pyrrolo[2,1-f][1,2,4]triazin-5-yl)methanol], the IC50 was 92 nM.

In the case of `CC(C)n1nnc(-c2cccc(Nc3ncnn4ccc(CN)c34)c2)n1` [Example 99, 5-(aminomethyl)-N-(3-(2-isopropyl-2H-tetrazol-5-yl)phenyl)pyrrolo[2,1-f][1,2,4]triazin-4-amine], the IC50 turned out to be 217 nM.

The compound `COCc1ccn2ncnc(Nc3cccc(-c4nnn(C(C)C)n4)c3)c12` [Example 100, N-(3-(2-isopropyl-2H-tetrazol-5-yl)phenyl)-5-(methoxymethyl)pyrrolo[2,1-f][1,2,4]triazin-4-amine] came in with an IC50 of 54 nM.

As to `CC(C)n1nnc(-c2cccc(Nc3ncnn4ccc(C(=O)N(C)C)c34)c2)n1` [Example 101, 4-((3-(2-isopropyl-2H-tetrazol-5-yl)phenyl)amino)-N,N-dimethylpyrrolo[2,1-f][1,2,4]triazine-5-carboxamide], 687 nM corresponded to half-maximal inhibition (IC50).

Take `CC(C)n1nnc(-c2cccc(Nc3ncnn4ccc(CN(C)C)c34)c2)n1` [Example 102, 5-((dimethylamino)methyl)-N-(3-(2-isopropyl-2H-tetrazol-5-yl)phenyl)pyrrolo[2,1-f][1,2,4]triazin-4-amine]: the IC50 came to 49 nM.

The compound `CNC(=O)c1ccn2ncnc(Nc3cccc(-c4nnn(C(C)C)n4)c3)c12` [Example 103, 4-((3-(2-isopropyl-2H-tetrazol-5-yl)phenyl)amino)-N-methylpyrrolo[2,1-f][1,2,4]triazine-5-carboxamide] came in with an IC50 of 26 nM.
